{
  "source": "patent US20260325540A1",
  "about": "(priority 2023, published 2026)",
  "data": [
    {"biological_target": "MERS-CoV 3CLpro (Middle East respiratory syndrome-related coronavirus, UniProt K9N638)", "sequence (K9N638 3248-3553 limits assumed)": "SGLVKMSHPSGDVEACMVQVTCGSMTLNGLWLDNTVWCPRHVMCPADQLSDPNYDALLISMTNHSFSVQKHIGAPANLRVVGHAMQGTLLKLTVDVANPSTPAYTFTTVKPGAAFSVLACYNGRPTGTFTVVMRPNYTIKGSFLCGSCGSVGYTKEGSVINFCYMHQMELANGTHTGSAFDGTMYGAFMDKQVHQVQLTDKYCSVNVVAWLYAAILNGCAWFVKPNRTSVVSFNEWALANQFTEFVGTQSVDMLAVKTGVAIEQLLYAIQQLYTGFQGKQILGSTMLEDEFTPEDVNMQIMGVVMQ", "assay": "biochemical", "details": "MERS IC50, 75 nM MERS-CoV 3CLpro, 6 μM peptide 1 substrate, 25° C., 1.5 hrs, pH 7.5", "units": {"IC50": "nM"}, "values": [
      {"smiles": "CC(C)C[C@@H]1NC(=O)[C@@H](Cc2ccccc2)CCCC[C@H]2CNC(=O)[C@H]2C[C@@H](C=O)NC1=O", "note": "[Example 36]", "IC50": "100 to 1000"},
      {"smiles": "CC1(C)[C@@H]2[C@H]3C(=O)N[C@H](C#N)C[C@@H]4C(=O)NC[C@@H]4CCCC[C@H](NC(=O)C4CCCCC4)C(=O)N3C[C@@H]21", "note": "[Example 77]", "IC50": "< 100"},
      {"smiles": "CC(C)(C)CC(=O)N[C@H]1CCCC[C@H]2CNC(=O)[C@H]2C[C@@H](C#N)NC(=O)[C@@H]2[C@@H]3[C@H](CN2C1=O)C3(C)C", "note": "[Example 73]", "IC50": "< 100"},
      {"smiles": "CC(C)C[C@@H]1NC(=O)C(OC2CCCCC2)CCC[C@H]2CNC(=O)[C@@H]2C[C@@H](C#N)NC1=O", "note": "(stereo partly drawn) [Example 23]", "IC50": "> 20000"},
      {"smiles": "CC(C)C[C@@H]1NC(=O)[C@@H](Cc2ccccc2)CCCC[C@H]2CNC(=O)[C@H]2C[C@@H](C#N)NC1=O", "note": "[Example 39]", "IC50": "1000 to 20000"},
      {"smiles": "N#C[C@@H]1C[C@@H]2C(=O)NC[C@@H]2/C=C/CC[C@H](NC(=O)C(F)(F)F)C(=O)N2C[C@@H]3CCC[C@@H]3[C@H]2C(=O)N1", "note": "[Example 101]", "IC50": "100 to 1000"},
      {"smiles": "CC1(C)[C@@H]2[C@H]3C(=O)N[C@H](C#N)C[C@@H]4C(=O)NC[C@@H]4CCCC[C@H](NC(=O)c4cccc(Cl)c4Cl)C(=O)N3C[C@@H]21", "note": "[Example 134]", "IC50": "< 100"},
      {"smiles": "CC1(C)[C@@H]2[C@H]3C(=O)N[C@H](C#N)C[C@@H]4C(=O)NC[C@@H]4CCCC[C@H](NC(=O)CC4CC(F)(F)C4)C(=O)N3C[C@@H]21", "note": "[Example 89]", "IC50": "100 to 1000"},
      {"smiles": "CC1(C)[C@@H]2[C@H]3C(=O)N[C@H](C#N)C[C@@H]4C(=O)NC[C@@H]4CCCC[C@H](NC(=O)C(F)(F)F)C(=O)N3C[C@@H]21", "note": "[Example 87]", "IC50": "< 100"},
      {"smiles": "CO[C@@H]1C[C@H]2C(=O)N[C@H](C#N)C[C@@H]3C(=O)NC[C@@H]3CCCC[C@H](NC(=O)OC(C)(C)C)C(=O)N2C1", "note": "[Example 147]", "IC50": "100 to 1000"},
      {"smiles": "CC(C)(C)OC(=O)N[C@H]1CC/C=C/[C@H]2CNC(=O)[C@H]2C[C@@H](C#N)NC(=O)[C@@H]2[C@@H]3[C@H](CN2C1=O)C3(C)C", "note": "[Example 92]", "IC50": "< 100"},
      {"smiles": "CC1(C)[C@@H]2[C@H]3C(=O)N[C@H](C#N)C[C@@H]4C(=O)NC[C@@H]4CCCC[C@H](NC(=O)C4CC5(CCC5)C4)C(=O)N3C[C@@H]21", "note": "(stereo partly drawn) [Example 81]", "IC50": "100 to 1000"},
      {"smiles": "CC(C)(C)OC(=O)N[C@H]1CCCC[C@H]2CNC(=O)[C@H]2C[C@@H](C#N)NC(=O)[C@H](CC2CCCC2)NC1=O", "note": "[Example 137]", "IC50": "1000 to 20000"},
      {"smiles": "CC(C)(C)OC(=O)N[C@H]1CCCC[C@H]2CNC(=O)[C@H]2C[C@@H](C#N)NC(=O)[C@@H]2CC(F)(F)CN2C1=O", "note": "[Example 131]", "IC50": "100 to 1000"},
      {"smiles": "CC1(C)[C@@H]2[C@H]3C(=O)N[C@H](C#N)C[C@@H]4C(=O)NC[C@@H]4CCCC[C@H](Nc4ccnc(C(F)(F)F)n4)C(=O)N3C[C@@H]21", "note": "[Example 164]", "IC50": "100 to 1000"}
    ]},
    {"biological_target": "SARS-CoV-2 3CLpro (Severe acute respiratory syndrome coronavirus 2, UniProt P0DTD1)", "assay": "FRET based protease assay, SARS-CoV-2 3CL", "format": "biochemical, SARS-CoV-2 (strain BetaCoV/Wuhan/WIV04/2019)", "details": "not given", "units": {"IC50": "nM"}, "values": [
      {"smiles": "CC(C)C[C@@H]1NC(=O)[C@@H](Cc2ccccc2)CCCC[C@H]2CNC(=O)[C@H]2C[C@@H](C=O)NC1=O", "note": "[Example 36]", "IC50": "< 100"},
      {"smiles": "CC1(C)[C@@H]2[C@H]3C(=O)N[C@H](C#N)C[C@@H]4C(=O)NC[C@@H]4CCCC[C@H](NC(=O)C4CCCCC4)C(=O)N3C[C@@H]21", "note": "[Example 77]", "IC50": "< 100"},
      {"smiles": "CC(C)(C)CC(=O)N[C@H]1CCCC[C@H]2CNC(=O)[C@H]2C[C@@H](C#N)NC(=O)[C@@H]2[C@@H]3[C@H](CN2C1=O)C3(C)C", "note": "[Example 73]", "IC50": "< 100"},
      {"smiles": "CC(C)C[C@@H]1NC(=O)C(OC2CCCCC2)CCC[C@H]2CNC(=O)[C@@H]2C[C@@H](C#N)NC1=O", "note": "(stereo partly drawn) [Example 23]", "IC50": "> 20000"},
      {"smiles": "CC(C)C[C@@H]1NC(=O)[C@@H](Cc2ccccc2)CCCC[C@H]2CNC(=O)[C@H]2C[C@@H](C#N)NC1=O", "note": "[Example 39]", "IC50": "100 to 1000"},
      {"smiles": "N#C[C@@H]1C[C@@H]2C(=O)NC[C@@H]2/C=C/CC[C@H](NC(=O)C(F)(F)F)C(=O)N2C[C@@H]3CCC[C@@H]3[C@H]2C(=O)N1", "note": "[Example 101]", "IC50": "< 100"},
      {"smiles": "CC1(C)[C@@H]2[C@H]3C(=O)N[C@H](C#N)C[C@@H]4C(=O)NC[C@@H]4CCCC[C@H](NC(=O)c4cccc(Cl)c4Cl)C(=O)N3C[C@@H]21", "note": "[Example 134]", "IC50": "< 100"},
      {"smiles": "CC1(C)[C@@H]2[C@H]3C(=O)N[C@H](C#N)C[C@@H]4C(=O)NC[C@@H]4CCCC[C@H](NC(=O)CC4CC(F)(F)C4)C(=O)N3C[C@@H]21", "note": "[Example 89]", "IC50": "< 100"},
      {"smiles": "CC1(C)[C@@H]2[C@H]3C(=O)N[C@H](C#N)C[C@@H]4C(=O)NC[C@@H]4CCCC[C@H](NC(=O)C(F)(F)F)C(=O)N3C[C@@H]21", "note": "[Example 87]", "IC50": "< 100"},
      {"smiles": "CO[C@@H]1C[C@H]2C(=O)N[C@H](C#N)C[C@@H]3C(=O)NC[C@@H]3CCCC[C@H](NC(=O)OC(C)(C)C)C(=O)N2C1", "note": "[Example 147]", "IC50": "< 100"},
      {"smiles": "CC(C)(C)OC(=O)N[C@H]1CC/C=C/[C@H]2CNC(=O)[C@H]2C[C@@H](C#N)NC(=O)[C@@H]2[C@@H]3[C@H](CN2C1=O)C3(C)C", "note": "[Example 92]", "IC50": "< 100"},
      {"smiles": "CC1(C)[C@@H]2[C@H]3C(=O)N[C@H](C#N)C[C@@H]4C(=O)NC[C@@H]4CCCC[C@H](NC(=O)C4CC5(CCC5)C4)C(=O)N3C[C@@H]21", "note": "(stereo partly drawn) [Example 81]", "IC50": "< 100"},
      {"smiles": "CC(C)(C)OC(=O)N[C@H]1CCCC[C@H]2CNC(=O)[C@H]2C[C@@H](C#N)NC(=O)[C@H](CC2CCCC2)NC1=O", "note": "[Example 137]", "IC50": "< 100"},
      {"smiles": "CC(C)(C)OC(=O)N[C@H]1CCCC[C@H]2CNC(=O)[C@H]2C[C@@H](C#N)NC(=O)[C@@H]2CC(F)(F)CN2C1=O", "note": "[Example 131]", "IC50": "100 to 1000"},
      {"smiles": "CC1(C)[C@@H]2[C@H]3C(=O)N[C@H](C#N)C[C@@H]4C(=O)NC[C@@H]4CCCC[C@H](Nc4ccnc(C(F)(F)F)n4)C(=O)N3C[C@@H]21", "note": "[Example 164]", "IC50": "< 100"}
    ]}
  ]
}
